Experimental findings from ChEMBL document CHEMBL1146934, “Polyhydroxylated 4-thiaflavans as multipotent antioxidants: protective effect on oxidative DNA damage in vitro” (Bioorg Med Chem Lett, 2006) are described below.

Active and inactive are the calls of the source. The calls are words filed in the database; no cut-off is given here.

Experiment [1] relates to Radical scavenging activity. As to the kind of experiment: Effect on glutathione/ferric ion-induced oxidative damage of herring sperm DNA assessed as reduction in 8-OHdG level. It counts as functional. On the set-up: scale not given: the % may be the effect or the level left. The note with it: Clupea.
Experiment [2] deals with Radical scavenging activity. Briefly: Effect on CumOOH-induced oxidative damage of herring sperm DNA assessed as reduction in 8-OHdG level. On the set-up: scale not given: the % may be the effect or the level left. The note with it: Clupea. It counts as functional.

`COc1ccc(C2CSc3ccc(O)cc3O2)cc1` (configuration not stated): the outcome in experiment [1] was Active. In experiment [2], the result was inactive.

For the molecule `Oc1cc(O)c2c(c1)OC(c1ccc(O)c(O)c1)CS2` (configuration not stated), the results for the Activity in experiment [1] and in experiment [2] were 82% and 30%, respectively. Take `COc1ccc(C2CSc3c(O)cc(O)cc3O2)cc1` (configuration not stated): the result in experiment [1] was Active. In addition, the result in experiment [2] was inactive. As for `COc1ccc(C2CSc3cc(O)ccc3O2)cc1` (configuration not stated), the result in experiment [2] was inactive. Consider `Oc1cc(O)c2c(c1)OC(c1ccc(O)c(O)c1)C(O)C2` (racemic), for which the Activity in experiment [1] came out at 36%; in experiment [2], 32%.

For `COc1cc(OC)c2c(c1)OC(c1ccc(O)c(O)c1)CS2` (configuration not stated), in experiment [2], the Activity is 30%.

In the case of VITAMIN E, the Activity in experiment [1] was determined as 33%; in experiment [2], 61%.
